Where a name gives a salt, the structure may show the parent alone.
Test: in vitro release (dissolution) of active ingredient from microcapsules in strongly acidic (pH 1) and weakly acidic (pH 4.5) medium
Assay type: physicochemical
Details: for release of active ingredient from microcapsules (in words): strongly acidic and weakly acidic medium (pH 1 and 4.5)
Description: FIG. 1 is a graph depicting percent release as a function of time of an active ingredient from microcapsules prepared by spray solidification in carnauba wax.
FIGS. 2a and 2b are two graphs depicting percent release as a function of time of an active ingredient in, respectively, the hydrate and anhydrate forms.
FIGS. 3a and 3b are two graphs depicting percent release as a function of time of an active ingredient in, respectively, the hydrate and anhydrate forms.
FIGS. 4a and 4b are two graphs depicting percent release as a function of time of an active ingredient in, respectively, the hydrate and anhydrate forms.
FIGS. 5a and 5b are two graphs depicting percent release as a function of time of an active ingredient in, respectively, the hydrate and anhydrate forms.

SMILES | release of active ingredient from microcapsules (in words) | release of active ingredient from wax-embedded microcapsules (in words) (embedded by method of EP-A-273,890 (carnauba wax, beeswax, ethylcellulose), FIG. 1, spray solidification in carnauba wax) | release of active ingredient from microcapsules (in words) (listed as ciprofloxacin betaine)
O=C(O)c1cn(C2CC2)c2cc(N3CCNCC3)c(F)cc2c1=O [ciprofloxacin HCl] | delayed | – | –
O=C(O)c1cn(C2CC2)c2cc(N3CCNCC3)c(F)cc2c1=O [ciprofloxacin] | – | does not lead, however, to the required rapid release of active ingredient | a rapid release of active ingredient is guaranteed

From patent US6136347A, “Flavor-masked pharmaceutical compositions” (Bayer Aktiengesellschaft, priority 1992, dated 2000)
